Like-named read-outs stand apart in the source and are kept apart here. Numbered stars: 1 amine (or outer) side, 2 acyl side, 3 side chain; on linkers, the order of the positions; unused ones are H or OH. Square brackets hold non-standard residues; d marks the D form. Side chains are listed from the residue outwards. Peptide text beside a SMILES is read from it. * marks the point of attachment. C20 diacid = O=C(O)CCCCCCCCCCCCCCCCCCC(=O)*; C18 diacid = O=C(O)CCCCCCCCCCCCCCCCC(=O)*; αMeW = C[C@](N)(Cc1c[nH]c2ccccc12)C(=O)O; γGlu = O=C(O)[C@H](CCC(=O)[*:2])N[*:1]; Met(O2) = CS(=O)(=O)CC[C@H](N)C(=O)O; αMeD = C[C@](N)(CC(=O)O)C(=O)O; AEEA = NCCOCCOCC(=O)O; Aib = CC(C)(N)C(=O)O

Broadly, the EC50 is the concentration at which the effect is half-maximal.

One test has as its target T1, human GCGR (Homo sapiens, UniProt P47871).
T1 construct: expressed in transfected cells; growth medium holds Blasticidin and Hygromycin
Nature of the test: cAMP activity assay at the Glucagon receptor (GCGR). Conditions: for hGCGR/hGLP1R (hTone): ratio of GCGR EC50 to GLP1R EC50. The class given is cell-based. The method, boiled down: (§1)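 Peptides serially diluted from DMSO (10 points) and added to frozen-stock cells bearing human GLP1R (10,000 cells/well) or GCGR (30,000 cells/well), 1 h at RT, dark. EC50 by four-parameter logistic fit of HitHunter cAMPXS luminescence, read following overnight RT incubation.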

In a further test the target is T2, human GLP1R (Homo sapiens, UniProt P43220).
T2 construct: expressed in transfected cells; growth medium holds Blasticidin and Hygromycin
Nature of the test: cAMP activity assay at the GLP-1 receptor (GLP1R). The class given is cell-based. In outline:
as §1

Where [1] appears, read: summary statement: EC50 at each of the glucagon and GLP-1 receptors, read-out: EC50 at the glucagon receptor.
Where [2] appears, read: summary statement: EC50 at each of the glucagon and GLP-1 receptors, read-out: EC50 at the GLP-1 receptor.
Where [3] appears, read: cells expressing human GLP1R, cAMP production, buffer with or without 20% human serum (not stated which), read-out: GLP1R EC50 human.
[4] abbreviates: cells expressing human GCGR, cAMP production, buffer with or without 20% human serum (not stated which), read-out: GCGR EC50 human.

T2 sequence (P43220 24-463): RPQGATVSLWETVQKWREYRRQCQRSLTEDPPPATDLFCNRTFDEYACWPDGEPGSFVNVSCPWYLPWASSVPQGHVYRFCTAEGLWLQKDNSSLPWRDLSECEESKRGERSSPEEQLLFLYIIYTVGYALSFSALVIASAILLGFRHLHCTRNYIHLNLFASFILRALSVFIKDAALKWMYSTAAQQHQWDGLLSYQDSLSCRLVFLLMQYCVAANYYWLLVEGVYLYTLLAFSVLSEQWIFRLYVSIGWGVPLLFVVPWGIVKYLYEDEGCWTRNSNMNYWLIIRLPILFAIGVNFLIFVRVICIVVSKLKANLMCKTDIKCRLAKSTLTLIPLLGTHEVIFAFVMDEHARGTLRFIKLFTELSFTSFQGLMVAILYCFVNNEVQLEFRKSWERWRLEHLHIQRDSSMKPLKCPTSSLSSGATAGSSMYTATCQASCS
T1 sequence (P47871 26-477): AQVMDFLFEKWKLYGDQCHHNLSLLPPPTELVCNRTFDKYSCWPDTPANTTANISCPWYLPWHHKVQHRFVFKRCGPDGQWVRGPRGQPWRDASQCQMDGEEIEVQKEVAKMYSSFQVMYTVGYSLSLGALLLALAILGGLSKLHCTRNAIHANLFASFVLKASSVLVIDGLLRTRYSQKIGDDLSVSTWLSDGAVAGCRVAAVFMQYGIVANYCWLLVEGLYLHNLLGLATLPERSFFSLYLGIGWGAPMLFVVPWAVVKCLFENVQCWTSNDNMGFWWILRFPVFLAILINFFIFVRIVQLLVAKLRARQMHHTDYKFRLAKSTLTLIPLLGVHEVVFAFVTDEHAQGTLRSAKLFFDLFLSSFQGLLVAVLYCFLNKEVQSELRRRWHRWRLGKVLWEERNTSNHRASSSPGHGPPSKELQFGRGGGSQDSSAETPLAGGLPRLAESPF

As to `CC(C)C[C@H](NC(=O)[C@H](Cc1ccc(O)cc1)NC(=O)[C@H](CCCCN)NC(=O)[C@H](CO)NC(=O)[C@H](Cc1ccc(O)cc1)NC(=O)[C@H](CC(=O)O)NC(=O)[C@H](CO)NC(=O)[C@@H](NC(=O)[C@H](Cc1ccccc1)NC(=O)[C@@H](NC(=O)CNC(=O)[C@H](CCC(N)=O)NC(=O)C(C)(C)NC(=O)[C@@H](N)Cc1c[nH]cn1)[C@@H](C)O)[C@@H](C)O)C(=O)N[C@@H](CC(=O)O)C(=O)NC(C)(C)C(=O)N[C@@H](CCCNC(=N)N)C(=O)N[C@@H](C)C(=O)N[C@@H](C)C(=O)N[C@@H](CCCCNC(=O)COCCOCCNC(=O)COCCOCCNC(=O)CC[C@H](NC(=O)CCCCCCCCCCCCCCCCCCC(=O)O)C(=O)O)C(=O)N[C@@H](CC(=O)O)C(=O)N[C@@H](Cc1ccccc1)C(=O)N[C@H](C(=O)N[C@@H](CCC(N)=O)C(=O)N[C@@H](Cc1c[nH]c2ccccc12)C(=O)N[C@@H](CC(C)C)C(=O)N[C@@H](CCS(C)(=O)=O)C(=O)N[C@@](C)(CC(=O)O)C(=O)N[C@H](C(N)=O)[C@@H](C)O)C(C)C` [TP588] (H-H[Aib]QGTFTSDYSKYLD[Aib]RAAK([AEEA-AEEA-γGlu-C20 diacid])DFVQWL[Met(O2)][αMeD]T-NH2; N-terminus assumed), on human GCGR, the “hGCGR/hGLP1R (hTone)” value came out at 0.9. The EC50 on human GCGR (setting [1]) and at human GLP1R (setting [2]) was < 5 nM in each case.
For `CC(C)C[C@H](NC(=O)[C@H](Cc1ccc(O)cc1)NC(=O)[C@H](CCCCN)NC(=O)[C@H](CO)NC(=O)[C@H](Cc1ccc(O)cc1)NC(=O)[C@H](CC(=O)O)NC(=O)[C@H](CO)NC(=O)[C@@H](NC(=O)[C@H](Cc1ccccc1)NC(=O)[C@@H](NC(=O)CNC(=O)[C@H](CCC(N)=O)NC(=O)C(C)(C)NC(=O)[C@@H](N)Cc1c[nH]cn1)[C@@H](C)O)[C@@H](C)O)C(=O)N[C@@H](CC(=O)O)C(=O)N[C@@H](C)C(=O)N[C@@H](CCCNC(=N)N)C(=O)N[C@@H](C)C(=O)N[C@@H](C)C(=O)N[C@@H](CCCCNC(=O)COCCOCCNC(=O)COCCOCCNC(=O)COCCOCCNC(=O)CC[C@H](NC(=O)CCCCCCCCCCCCCCCCC(=O)O)C(=O)O)C(=O)N[C@@H](CC(=O)O)C(=O)N[C@@H](Cc1ccccc1)C(=O)N[C@H](C(=O)N[C@@H](CCC(N)=O)C(=O)N[C@@H](Cc1c[nH]c2ccccc12)C(=O)N[C@@H](CC(C)C)C(=O)N[C@@H](CCS(C)(=O)=O)C(=O)N[C@@H](CC(=O)O)C(=O)N[C@H](C(N)=O)[C@@H](C)O)C(C)C` [TP676] (H-H[Aib]QGTFTSDYSKYLDARAAK([AEEA-AEEA-AEEA-γGlu-C18 diacid])DFVQWL[Met(O2)]DT-NH2; N-terminus assumed), the “hGCGR/hGLP1R (hTone)” value at human GCGR was 3.1. Besides, the EC50 on human GCGR (setting [1]) was < 5 nM; at human GLP1R (setting [3]), 0.26 nM; on human GLP1R (setting [2]), < 5 nM.
On to `CC(C)C[C@H](NC(=O)[C@H](Cc1ccc(O)cc1)NC(=O)[C@H](CCCCN)NC(=O)[C@H](CO)NC(=O)[C@H](Cc1ccc(O)cc1)NC(=O)[C@H](CC(=O)O)NC(=O)[C@H](CO)NC(=O)[C@@H](NC(=O)[C@H](Cc1ccccc1)NC(=O)[C@@H](NC(=O)CNC(=O)[C@H](CCC(N)=O)NC(=O)C(C)(C)NC(=O)[C@@H](N)Cc1c[nH]cn1)[C@@H](C)O)[C@@H](C)O)C(=O)N[C@@H](CC(=O)O)C(=O)N[C@@H](C)C(=O)N[C@@H](CCCNC(=N)N)C(=O)N[C@@H](C)C(=O)N[C@@H](C)C(=O)N[C@@H](CCCCNC(=O)COCCOCCNC(=O)COCCOCCNC(=O)CC[C@H](NC(=O)CCCCCCCCCCCCCCCCC(=O)O)C(=O)O)C(=O)N[C@@H](CC(=O)O)C(=O)N[C@@H](Cc1ccccc1)C(=O)N[C@H](C(=O)N[C@@H](CCC(=O)O)C(=O)N[C@@H](Cc1c[nH]c2ccccc12)C(=O)N[C@@H](CC(C)C)C(=O)N[C@@H](CCS(C)(=O)=O)C(=O)N[C@@H](CCCCN)C(=O)N[C@H](C(N)=O)[C@@H](C)O)C(C)C` [TP705] (H-H[Aib]QGTFTSDYSKYLDARAAK([AEEA-AEEA-γGlu-C18 diacid])DFVEWL[Met(O2)]KT-NH2; N-terminus assumed), for which the “hGCGR/hGLP1R (hTone)” value at human GCGR was found to be 3.6. In addition, the results for the half-maximal effective concentration (EC50) at human GCGR (setting [1]), at human GLP1R (setting [3]) and at human GLP1R (setting [2]) were < 5 nM, 0.41 nM and < 5 nM, respectively.
For `CC(C)C[C@H](NC(=O)[C@H](Cc1ccc(O)cc1)NC(=O)[C@H](CCCCN)NC(=O)[C@H](CO)NC(=O)[C@H](Cc1ccc(O)cc1)NC(=O)[C@H](CC(=O)O)NC(=O)[C@H](CO)NC(=O)[C@@H](NC(=O)[C@H](Cc1ccccc1)NC(=O)[C@@H](NC(=O)CNC(=O)[C@H](CCC(N)=O)NC(=O)C(C)(C)NC(=O)[C@@H](N)Cc1c[nH]cn1)[C@@H](C)O)[C@@H](C)O)C(=O)N[C@@H](CC(=O)O)C(=O)N[C@@H](C)C(=O)N[C@@H](CCCNC(=N)N)C(=O)N[C@@H](C)C(=O)N[C@@H](C)C(=O)N[C@@H](CCCCNC(=O)COCCOCCNC(=O)COCCOCCNC(=O)CC[C@H](NC(=O)CCCCCCCCCCCCCCCCC(=O)O)C(=O)O)C(=O)N[C@@H](CC(=O)O)C(=O)N[C@@H](Cc1ccccc1)C(=O)N[C@H](C(=O)N[C@@H](CCC(N)=O)C(=O)N[C@@](C)(Cc1c[nH]c2ccccc12)C(=O)N[C@@H](CC(C)C)C(=O)N[C@@H](CCS(C)(=O)=O)C(=O)N[C@@H](CC(=O)O)C(=O)N[C@H](C(N)=O)[C@@H](C)O)C(C)C` [TP631] (H-H[Aib]QGTFTSDYSKYLDARAAK([AEEA-AEEA-γGlu-C18 diacid])DFVQ[αMeW]L[Met(O2)]DT-NH2; N-terminus assumed), the “hGCGR/hGLP1R (hTone)” value at human GCGR worked out at 1.3. Besides, the EC50 at human GCGR (setting [1]) and at human GLP1R (setting [2]) was < 5 nM in each case.
In the case of `CC(C)C[C@H](NC(=O)[C@H](Cc1ccc(O)cc1)NC(=O)[C@H](CCCCN)NC(=O)[C@H](CO)NC(=O)[C@H](Cc1ccc(O)cc1)NC(=O)[C@H](CC(=O)O)NC(=O)[C@H](CO)NC(=O)[C@H](CC(C)C)NC(=O)[C@H](Cc1ccccc1)NC(=O)[C@@H](NC(=O)CNC(=O)[C@H](CCC(N)=O)NC(=O)C(C)(C)NC(=O)[C@@H](N)Cc1c[nH]cn1)[C@@H](C)O)C(=O)N[C@@H](CC(=O)O)C(=O)N[C@@H](C)C(=O)N[C@@H](CCCNC(=N)N)C(=O)N[C@@H](C)C(=O)N[C@@H](C)C(=O)N[C@@H](CCCCNC(=O)COCCOCCNC(=O)COCCOCCNC(=O)CC[C@H](NC(=O)CCCCCCCCCCCCCCCCC(=O)O)C(=O)O)C(=O)N[C@@H](CC(=O)O)C(=O)N[C@@H](Cc1ccccc1)C(=O)N[C@H](C(=O)N[C@@H](CCC(N)=O)C(=O)N[C@@H](Cc1c[nH]c2ccccc12)C(=O)N[C@@H](CC(C)C)C(=O)N[C@@H](CCS(C)(=O)=O)C(=O)N[C@@H](CC(=O)O)C(=O)N[C@H](C(N)=O)[C@@H](C)O)C(C)C` [TP596] (H-H[Aib]QGTFLSDYSKYLDARAAK([AEEA-AEEA-γGlu-C18 diacid])DFVQWL[Met(O2)]DT-NH2; N-terminus assumed), the concentration for a half-maximal effect (EC50) was 0.35 nM at human GCGR (setting [4]), < 5 nM on human GCGR (setting [1]), > 20 nM at human GLP1R (setting [3]) and < 5 nM at human GLP1R (setting [2]). For the same compound, the “hGCGR/hGLP1R (hTone)” value at human GCGR is 0.2.
Turning to `CC(C)C[C@H](NC(=O)[C@H](Cc1ccc(O)cc1)NC(=O)[C@H](CCCCN)NC(=O)[C@H](CO)NC(=O)[C@H](Cc1ccc(O)cc1)NC(=O)[C@H](CC(=O)O)NC(=O)[C@H](CO)NC(=O)[C@@H](NC(=O)[C@H](Cc1ccccc1)NC(=O)[C@@H](NC(=O)CNC(=O)[C@H](CCC(N)=O)NC(=O)C(C)(C)NC(=O)[C@@H](N)Cc1c[nH]cn1)[C@@H](C)O)[C@@H](C)O)C(=O)N[C@@H](CC(=O)O)C(=O)N[C@@H](C)C(=O)N[C@@H](CCCNC(=N)N)C(=O)N[C@@H](C)C(=O)N[C@@H](C)C(=O)N[C@@H](CCC(N)=O)C(=O)N[C@@H](CCC(=O)O)C(=O)N[C@@H](Cc1ccccc1)C(=O)N[C@H](C(=O)N[C@@H](CCCCNC(=O)COCCOCCNC(=O)COCCOCCNC(=O)CC[C@H](NC(=O)CCCCCCCCCCCCCCCCC(=O)O)C(=O)O)C(=O)N[C@@H](Cc1c[nH]c2ccccc12)C(=O)N[C@@H](CC(C)C)C(=O)N[C@@H](CCS(C)(=O)=O)C(=O)N[C@@H](CC(=O)O)C(=O)N[C@H](C(N)=O)[C@@H](C)O)C(C)C` [TP702] (H-H[Aib]QGTFTSDYSKYLDARAAQEFVK([AEEA-AEEA-γGlu-C18 diacid])WL[Met(O2)]DT-NH2; N-terminus assumed), the EC50 at human GCGR (setting [4]) was 0.35 nM; at human GCGR (setting [1]) it was < 5 nM; on human GLP1R (setting [2]) it was < 5 nM. Moreover, the “hGCGR/hGLP1R (hTone)” value at human GCGR came to 1.4.
`CC(C)C[C@H](NC(=O)[C@H](Cc1ccc(O)cc1)NC(=O)[C@H](CCCCN)NC(=O)[C@H](CO)NC(=O)[C@H](Cc1ccc(O)cc1)NC(=O)[C@H](CC(=O)O)NC(=O)[C@H](CO)NC(=O)[C@@H](NC(=O)[C@H](Cc1ccccc1)NC(=O)[C@@H](NC(=O)CNC(=O)[C@H](CCC(N)=O)NC(=O)C(C)(C)NC(=O)[C@@H](N)Cc1c[nH]cn1)[C@@H](C)O)[C@@H](C)O)C(=O)N[C@@H](CC(=O)O)C(=O)N[C@@H](C)C(=O)N[C@@H](CCCNC(=N)N)C(=O)N[C@@H](C)C(=O)N[C@@H](C)C(=O)N[C@@H](CCCCNC(=O)COCCOCCNC(=O)CC[C@H](NC(=O)CCCCCCCCCCCCCCCCCCC(=O)O)C(=O)O)C(=O)N[C@@H](CC(=O)O)C(=O)N[C@@H](Cc1ccccc1)C(=O)N[C@H](C(=O)N[C@@H](CCC(N)=O)C(=O)N[C@@H](Cc1c[nH]c2ccccc12)C(=O)N[C@@H](CC(C)C)C(=O)N[C@@H](CCS(C)(=O)=O)C(=O)N[C@@](C)(CC(=O)O)C(=O)N[C@H](C(N)=O)[C@@H](C)O)C(C)C` [TP629] (H-H[Aib]QGTFTSDYSKYLDARAAK([AEEA-γGlu-C20 diacid])DFVQWL[Met(O2)][αMeD]T-NH2; N-terminus assumed): the “hGCGR/hGLP1R (hTone)” value on human GCGR was 1.4. Besides, the concentration for a half-maximal effect (EC50) on human GCGR (setting [1]) and at human GLP1R (setting [2]) was < 5 nM in each case.

(Values after patent US11566057B2, “Long-acting co-agonists of the glucagon and GLP-1 receptors” (Merck Sharp & Dohme Corp., priority 2017, dated 2023).)
